pIC50: −log10 of the molar value.
Biological target: E. coli RNA polymerase β subunit (wild-type) (Escherichia coli, UniProt P0A8V2)
Experiment: coupled cell-free synthesis of RNAP holoenzyme with firefly luciferase reporter
Format: biochemical

E. coli RNA polymerase β subunit (wild-type), sequence (P0A8V2 whole entry): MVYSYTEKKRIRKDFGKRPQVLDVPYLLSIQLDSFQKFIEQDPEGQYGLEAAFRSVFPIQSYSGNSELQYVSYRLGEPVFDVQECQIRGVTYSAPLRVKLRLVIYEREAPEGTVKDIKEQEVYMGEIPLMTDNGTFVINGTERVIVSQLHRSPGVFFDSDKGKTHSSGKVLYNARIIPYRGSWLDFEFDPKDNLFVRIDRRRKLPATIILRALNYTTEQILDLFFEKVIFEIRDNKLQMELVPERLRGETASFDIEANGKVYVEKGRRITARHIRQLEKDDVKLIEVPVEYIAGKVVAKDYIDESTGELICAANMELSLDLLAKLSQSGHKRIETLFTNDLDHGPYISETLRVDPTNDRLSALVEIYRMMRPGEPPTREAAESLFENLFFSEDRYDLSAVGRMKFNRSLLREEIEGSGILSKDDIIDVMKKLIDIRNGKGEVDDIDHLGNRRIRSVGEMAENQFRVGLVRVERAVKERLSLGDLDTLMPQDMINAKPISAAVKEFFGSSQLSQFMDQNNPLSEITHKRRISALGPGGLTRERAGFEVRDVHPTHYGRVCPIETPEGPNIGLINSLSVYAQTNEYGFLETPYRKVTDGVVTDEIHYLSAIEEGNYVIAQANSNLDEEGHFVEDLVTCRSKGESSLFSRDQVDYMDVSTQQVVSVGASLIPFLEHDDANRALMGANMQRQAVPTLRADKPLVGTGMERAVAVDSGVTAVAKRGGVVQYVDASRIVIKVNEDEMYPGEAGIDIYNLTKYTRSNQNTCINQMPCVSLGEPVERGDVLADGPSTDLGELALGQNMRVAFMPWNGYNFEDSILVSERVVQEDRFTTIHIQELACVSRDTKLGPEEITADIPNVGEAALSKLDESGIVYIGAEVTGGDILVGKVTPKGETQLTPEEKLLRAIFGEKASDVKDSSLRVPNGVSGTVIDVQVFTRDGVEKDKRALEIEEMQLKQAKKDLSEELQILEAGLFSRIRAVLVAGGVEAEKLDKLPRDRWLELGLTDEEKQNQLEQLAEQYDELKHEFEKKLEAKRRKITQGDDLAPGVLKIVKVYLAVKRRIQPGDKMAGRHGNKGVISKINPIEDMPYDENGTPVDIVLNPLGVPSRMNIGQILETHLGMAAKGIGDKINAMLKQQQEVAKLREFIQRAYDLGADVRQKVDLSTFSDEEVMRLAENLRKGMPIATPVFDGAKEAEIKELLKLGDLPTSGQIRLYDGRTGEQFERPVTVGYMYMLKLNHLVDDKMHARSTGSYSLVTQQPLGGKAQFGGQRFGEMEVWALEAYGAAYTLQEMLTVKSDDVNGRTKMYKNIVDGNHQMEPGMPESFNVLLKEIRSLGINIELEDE
E. coli RNA polymerase β subunit (wild-type), sequence (P0A7Z4 whole entry partner): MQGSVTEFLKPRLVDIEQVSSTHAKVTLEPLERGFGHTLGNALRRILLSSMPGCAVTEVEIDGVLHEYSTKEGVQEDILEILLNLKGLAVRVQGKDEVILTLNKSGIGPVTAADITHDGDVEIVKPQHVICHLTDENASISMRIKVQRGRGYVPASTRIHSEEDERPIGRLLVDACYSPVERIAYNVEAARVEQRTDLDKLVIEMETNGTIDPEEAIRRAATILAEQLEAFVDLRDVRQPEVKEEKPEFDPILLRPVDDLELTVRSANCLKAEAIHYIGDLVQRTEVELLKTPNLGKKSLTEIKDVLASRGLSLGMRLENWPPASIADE
E. coli RNA polymerase β subunit (wild-type), sequence (P0A8T7 whole entry partner): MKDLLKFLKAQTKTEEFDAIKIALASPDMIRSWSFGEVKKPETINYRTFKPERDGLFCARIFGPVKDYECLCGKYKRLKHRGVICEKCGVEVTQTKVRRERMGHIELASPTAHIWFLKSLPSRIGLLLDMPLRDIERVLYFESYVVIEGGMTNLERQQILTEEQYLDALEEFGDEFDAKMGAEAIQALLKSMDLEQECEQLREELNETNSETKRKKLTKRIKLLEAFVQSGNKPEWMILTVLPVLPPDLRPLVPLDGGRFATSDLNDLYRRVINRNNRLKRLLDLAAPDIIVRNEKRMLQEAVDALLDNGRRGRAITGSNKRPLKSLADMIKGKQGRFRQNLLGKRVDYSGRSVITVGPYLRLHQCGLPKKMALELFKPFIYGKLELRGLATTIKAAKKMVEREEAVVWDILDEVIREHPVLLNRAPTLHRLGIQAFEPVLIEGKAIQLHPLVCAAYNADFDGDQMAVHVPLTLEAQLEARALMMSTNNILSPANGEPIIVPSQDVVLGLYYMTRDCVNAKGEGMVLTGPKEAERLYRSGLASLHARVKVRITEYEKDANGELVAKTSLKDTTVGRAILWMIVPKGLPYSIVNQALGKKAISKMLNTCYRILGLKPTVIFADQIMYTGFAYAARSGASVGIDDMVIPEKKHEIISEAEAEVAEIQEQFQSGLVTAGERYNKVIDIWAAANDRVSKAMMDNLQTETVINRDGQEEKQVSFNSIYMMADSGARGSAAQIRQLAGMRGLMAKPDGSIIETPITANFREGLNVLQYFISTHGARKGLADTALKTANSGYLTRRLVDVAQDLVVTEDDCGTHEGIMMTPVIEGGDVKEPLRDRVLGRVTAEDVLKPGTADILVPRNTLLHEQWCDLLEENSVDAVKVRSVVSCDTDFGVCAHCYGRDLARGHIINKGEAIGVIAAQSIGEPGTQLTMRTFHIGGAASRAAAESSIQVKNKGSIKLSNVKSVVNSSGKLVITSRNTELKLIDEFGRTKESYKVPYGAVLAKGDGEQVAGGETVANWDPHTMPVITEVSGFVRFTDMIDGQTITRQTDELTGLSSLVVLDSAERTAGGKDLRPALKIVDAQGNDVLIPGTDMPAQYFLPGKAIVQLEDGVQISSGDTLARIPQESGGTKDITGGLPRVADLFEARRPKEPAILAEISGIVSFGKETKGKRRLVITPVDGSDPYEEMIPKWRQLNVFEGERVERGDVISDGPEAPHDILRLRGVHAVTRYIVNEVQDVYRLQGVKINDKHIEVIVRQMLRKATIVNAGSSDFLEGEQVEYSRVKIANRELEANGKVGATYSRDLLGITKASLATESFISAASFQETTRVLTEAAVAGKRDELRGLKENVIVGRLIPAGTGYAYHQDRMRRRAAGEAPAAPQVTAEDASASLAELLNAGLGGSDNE
E. coli RNA polymerase β subunit (wild-type), sequence (P0A800 2-91 partner): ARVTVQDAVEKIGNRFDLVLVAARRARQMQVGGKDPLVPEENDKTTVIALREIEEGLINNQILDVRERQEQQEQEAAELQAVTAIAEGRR
E. coli RNA polymerase β subunit (wild-type), sequence (P0AGB3 whole entry partner): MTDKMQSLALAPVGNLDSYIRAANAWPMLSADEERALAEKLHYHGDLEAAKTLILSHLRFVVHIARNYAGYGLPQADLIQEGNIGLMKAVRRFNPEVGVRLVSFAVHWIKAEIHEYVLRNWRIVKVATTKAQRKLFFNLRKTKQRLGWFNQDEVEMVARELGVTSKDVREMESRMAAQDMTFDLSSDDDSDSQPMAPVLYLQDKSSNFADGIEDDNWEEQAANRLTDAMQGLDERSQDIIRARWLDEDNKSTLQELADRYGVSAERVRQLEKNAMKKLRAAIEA

CO[C@H]1/C=C/O[C@@]2(C)Oc3c(C)c(O)c4c(O)c(c(/C=N/N5CCN(C)CC5)c(O)c4c3C2=O)NC(=O)/C(C)=C\C=C\[C@H](C)[C@H](O)[C@@H](C)[C@@H](O)[C@@H](C)[C@H](OC(C)=O)[C@@H]1C [rifampicin]
pIC50: ~6.70

Reference: publication PMC2910072 (Nucleic Acids Research, 2010)
